The assay relates to drug-resistant Mycobacterium tuberculosis. The note with it: Mycobacterium tuberculosis resistant to PAS, streptomycin, INH; peptide 10 micrograms per ml; seven days.

Structures are written as SMILES.

From patent US20100323950A1, “USE OF BETA-MELANOTROPIN AS A THERAPEUTIC AGENT, EG FOR THE TREATMENT OF AIDS OR ALZHEIMER” (priority 2007, published 2010) come the findings set out here.

The term % inhibition denotes the relative decrease from the control value, in per cent. A higher % inhibition goes with strong suppression. Turning to `CSCC[C@H](NC(=O)[C@H](CCCNC(=N)N)NC(=O)[C@H](Cc1ccc(O)cc1)NC(=O)[C@@H]1CCCN1C(=O)CNC(=O)[C@H](CCC(=O)O)NC(=O)[C@H](CC(=O)O)NC(=O)[C@H](CCCCN)NC(=O)[C@H](CCCCN)NC(=O)[C@H](CCC(=O)O)NC(=O)[C@H](C)N)C(=O)N[C@@H](CCC(=O)O)C(=O)N[C@@H](Cc1c[nH]cn1)C(=O)N[C@@H](Cc1ccccc1)C(=O)N[C@@H](CCCNC(=N)N)C(=O)N[C@@H](Cc1c[nH]c2ccccc12)C(=O)NCC(=O)N[C@@H](CO)C(=O)N1CCC[C@H]1C(=O)N1CCC[C@H]1C(=O)N[C@@H](CCCCN)C(=O)N[C@@H](CC(=O)O)C(=O)O` [Beta MSH], the “% inhibition” value is listed as 0.0%.
